Measurements from ChEMBL document CHEMBL1201862, “PubChem BioAssay data set” (2004).
Active and inactive are the calls of the source.

Tests used:
[1] = Luminescence Cell-Based Dose Confirmation HTS to Identify Inhibitors of Platelet Dense Granule Release. [Related pubchem assays: 1663 (Primary HTS), 1678 (Summary of Project)]; format: functional
[2] = biological target: Luciferin 4-monooxygenase (Photinus pyralis, UniProt P08659); assay: inhibition of purified Photinus pyralis luciferase – biochemical, luminescence, dose response (AID 1891)
[3] = biological target: T1, Corticotropin-releasing factor receptor 2/Corticotropin-releasing factor-binding protein (Homo sapiens, UniProt P24387+Q13324); assay: activators of CRF receptor 2 with binding protein – uHTS hits, confirmation (AID 602473); format: functional; details: read-out: EC50_Mean
T1 sequence (Q13324 whole entry): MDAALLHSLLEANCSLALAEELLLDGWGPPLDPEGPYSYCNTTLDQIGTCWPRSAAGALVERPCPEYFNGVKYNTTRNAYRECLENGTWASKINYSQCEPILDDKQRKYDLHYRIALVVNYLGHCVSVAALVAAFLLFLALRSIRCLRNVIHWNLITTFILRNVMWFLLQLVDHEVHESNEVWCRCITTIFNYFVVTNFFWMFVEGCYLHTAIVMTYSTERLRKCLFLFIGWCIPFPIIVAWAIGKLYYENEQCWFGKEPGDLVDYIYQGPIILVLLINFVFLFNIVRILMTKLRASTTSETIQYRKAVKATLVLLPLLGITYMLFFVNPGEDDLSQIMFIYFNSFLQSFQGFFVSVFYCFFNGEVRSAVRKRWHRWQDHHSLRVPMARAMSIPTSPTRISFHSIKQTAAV
T1 sequence (P24387 whole entry): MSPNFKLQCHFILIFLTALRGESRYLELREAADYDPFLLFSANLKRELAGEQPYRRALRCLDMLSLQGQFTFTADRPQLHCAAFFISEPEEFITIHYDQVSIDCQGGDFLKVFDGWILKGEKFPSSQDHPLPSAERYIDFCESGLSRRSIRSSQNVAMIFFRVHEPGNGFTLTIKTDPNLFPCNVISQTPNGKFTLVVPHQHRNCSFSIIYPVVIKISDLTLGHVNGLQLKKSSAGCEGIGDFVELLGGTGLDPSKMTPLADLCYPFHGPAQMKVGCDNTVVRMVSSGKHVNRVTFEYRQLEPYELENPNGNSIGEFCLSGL

[4] = biological target: T1, Corticotropin-releasing factor receptor 2/Corticotropin-releasing factor-binding protein; assay: Dose Response confirmation of uHTS hits for small molecule antagonists of the CRF-binding protein and CRF-R2 receptor complex.; format: functional; details: read-out: IC50_Mean
[5] = viability of HCT116 lacking mutant beta-catenin – cell-based, human colon tumor, dose response (AID 1045); format: functional;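 further: HCT116 colon tumor cells with beta catenin knocked out; cells exposed to compound for 60 hours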
[6] = viability of PTEN-deleted HCT116 cells – cell-based, HCT116 PTEN knockout, dose response (AID 1047); format: functional;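 further: HCT116 colon tumor cells with PTEN knocked out; cells exposed to compound for 60 hours before readout; potency for loss of cell viability measured by luminescence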
H4 = assay: Luminescence Cell-Based Dose Response HTS to Identify Activators of 5'UTR Stem-Loop Driven Prion Protein mRNA Translation in H4 Neuroglioblastoma Cells. [Related pubchem assays: 1829 (Project Summary), 1814 (Primary HTS)]; format: functional; details: Homo sapiens
[7] = Luminescence Cell-Based Dose Confirmation HTS to Identify Activators of 5'UTR Stem-Loop Driven Alpha-Synuclein mRNA Translation in H4 Neuroglioblastoma Cells. [Related pubchem assays: 1829 (Project Summary), 1814 (Primary HTS)]; format: functional
[8] = Luminescence Cell-Based Dose Response HTS to Identify Activators of Luciferase Translation or Activity in H4 […] Cells. [Related pubchem assays: 1829 (Project Summary), 1814 (Primary HTS)]; format: functional
[9] = biological target: FAD-linked sulfhydryl oxidase ALR (Homo sapiens, UniProt P55789); assay: ALR-catalysed DTT oxidation blockers – biochemical, H2O2 detection, luminescence, cherry-pick, dose response (AID 493248)
Cytochrome P450 2C19 = Cytochrome P450 2C19 (Homo sapiens, UniProt P33261); assay: Cytochrome panel assay with activity outcomes. Panel member name: p450-cyp2c19 Compounds with AC50 equal or less than 10 uM are considered active; format: functional
Cytochrome P450 3A4 = Cytochrome P450 3A4 (Homo sapiens, UniProt P08684);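 further: CYP3A4 tested as one member of a cytochrome P450 panel screen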
Cytochrome P450 1A2 = biological target: T2, Cytochrome P450 1A2 (Homo sapiens, UniProt P05177);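 further: PubChem cytochrome P450 panel assay, CYP1A2 panel member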
T2 sequence (P05177 whole entry): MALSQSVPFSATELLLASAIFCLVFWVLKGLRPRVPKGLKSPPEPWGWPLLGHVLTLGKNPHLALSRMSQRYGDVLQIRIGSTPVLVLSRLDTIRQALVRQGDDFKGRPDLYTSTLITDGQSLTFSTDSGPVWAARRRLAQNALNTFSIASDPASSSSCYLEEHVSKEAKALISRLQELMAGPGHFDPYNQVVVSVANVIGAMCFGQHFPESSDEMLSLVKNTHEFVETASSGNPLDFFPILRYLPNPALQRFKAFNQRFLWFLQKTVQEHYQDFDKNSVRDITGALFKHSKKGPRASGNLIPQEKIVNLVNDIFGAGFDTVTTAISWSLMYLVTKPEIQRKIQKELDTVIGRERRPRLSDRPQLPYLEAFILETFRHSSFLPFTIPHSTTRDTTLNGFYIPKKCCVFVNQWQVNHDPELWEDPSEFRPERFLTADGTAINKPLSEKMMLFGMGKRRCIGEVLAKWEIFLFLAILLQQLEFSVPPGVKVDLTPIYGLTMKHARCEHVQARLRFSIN

[10] = HIV-1 AD8 envelope cell-cell fusion blockers – cherry-pick, dose response (AID 652062); format: functional, cell-based;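 further: luciferase signal from cell-cell fusion driven by HIV-1 clade B AD8 Env; potency is for inhibitors of fusion seen as a drop in luminescence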
[11] = blockers of HIV-1 envelope-mediated cell-cell fusion – cherry-pick, dose response (AID 652057); format: functional, cell-based
[12] = P. falciparum Dd2 growth inhibitors, dose response, SYBR Green, cherry-picked samples (AID 1159567); format: functional, cell-based

Luciferin 4-monooxygenase, sequence (P08659 whole entry): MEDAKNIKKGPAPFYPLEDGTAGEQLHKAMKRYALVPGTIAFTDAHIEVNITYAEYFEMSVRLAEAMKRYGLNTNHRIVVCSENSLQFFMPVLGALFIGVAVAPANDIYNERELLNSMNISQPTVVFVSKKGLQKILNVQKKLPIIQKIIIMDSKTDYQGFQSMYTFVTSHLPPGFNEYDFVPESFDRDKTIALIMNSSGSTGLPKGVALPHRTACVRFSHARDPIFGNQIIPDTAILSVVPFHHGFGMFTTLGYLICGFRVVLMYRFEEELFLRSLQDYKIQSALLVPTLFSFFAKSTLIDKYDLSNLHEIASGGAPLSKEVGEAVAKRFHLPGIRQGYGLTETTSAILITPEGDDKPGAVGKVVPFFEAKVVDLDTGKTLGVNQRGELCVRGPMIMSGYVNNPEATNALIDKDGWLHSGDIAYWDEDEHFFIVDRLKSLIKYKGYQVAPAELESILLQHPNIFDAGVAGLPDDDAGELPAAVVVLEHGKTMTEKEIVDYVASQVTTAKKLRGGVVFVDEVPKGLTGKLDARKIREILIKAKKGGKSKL
Cytochrome P450 3A4, sequence (P08684 whole entry): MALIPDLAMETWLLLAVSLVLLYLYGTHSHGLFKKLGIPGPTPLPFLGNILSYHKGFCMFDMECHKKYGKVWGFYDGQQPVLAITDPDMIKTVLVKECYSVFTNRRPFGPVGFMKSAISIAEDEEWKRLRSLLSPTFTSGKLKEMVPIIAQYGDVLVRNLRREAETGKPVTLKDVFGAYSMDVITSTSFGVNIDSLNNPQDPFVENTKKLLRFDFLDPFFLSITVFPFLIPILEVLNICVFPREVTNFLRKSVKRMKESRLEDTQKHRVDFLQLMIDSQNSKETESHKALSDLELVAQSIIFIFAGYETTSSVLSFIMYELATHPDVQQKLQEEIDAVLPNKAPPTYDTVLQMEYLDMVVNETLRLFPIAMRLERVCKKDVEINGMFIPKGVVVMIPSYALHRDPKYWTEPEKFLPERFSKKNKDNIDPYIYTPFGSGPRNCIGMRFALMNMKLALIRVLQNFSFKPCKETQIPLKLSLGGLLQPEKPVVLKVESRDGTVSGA
FAD-linked sulfhydryl oxidase ALR, sequence (P55789 whole entry): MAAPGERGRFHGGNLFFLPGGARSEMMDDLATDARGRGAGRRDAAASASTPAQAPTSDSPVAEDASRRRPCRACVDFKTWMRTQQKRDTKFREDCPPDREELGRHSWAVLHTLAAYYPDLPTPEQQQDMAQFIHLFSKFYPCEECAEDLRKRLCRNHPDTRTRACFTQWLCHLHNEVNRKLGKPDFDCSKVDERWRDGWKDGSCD
Cytochrome P450 2C19, sequence (P33261 whole entry): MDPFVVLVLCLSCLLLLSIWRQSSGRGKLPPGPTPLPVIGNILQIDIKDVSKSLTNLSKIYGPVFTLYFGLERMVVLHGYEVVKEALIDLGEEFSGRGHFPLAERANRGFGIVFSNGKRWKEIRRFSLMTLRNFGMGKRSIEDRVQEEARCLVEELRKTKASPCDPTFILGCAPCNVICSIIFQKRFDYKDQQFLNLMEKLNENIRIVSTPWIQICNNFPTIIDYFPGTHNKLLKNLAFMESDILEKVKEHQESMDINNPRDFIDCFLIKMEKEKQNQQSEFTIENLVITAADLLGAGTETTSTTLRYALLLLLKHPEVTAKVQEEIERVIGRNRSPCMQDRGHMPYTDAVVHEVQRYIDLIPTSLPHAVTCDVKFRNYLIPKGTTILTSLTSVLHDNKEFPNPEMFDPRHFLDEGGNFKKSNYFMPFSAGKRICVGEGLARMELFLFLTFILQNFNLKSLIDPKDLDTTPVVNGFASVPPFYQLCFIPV

Row | SMILES | EC50 [1] | EC50 [2] | EC50 [3] | IC50 [4] | further results
1 | COc1ccc(CCNC(=O)CSc2nc(N)c3c(C)c(C)oc3n2)cc1OC | > 112 µM (not active) | > 112 µM (not active) | – | – | –
2 | O=C1c2ccccc2C(Nc2ccc(Cl)cn2)N1c1ccccn1 (centres undefined) | > 112 µM (not active) | > 112 µM (not active) | – | – | –
3 | CCCCNC(=O)CCc1nc2cccnc2n1Cc1ccc(OC)cc1 | – | – | > 53 µM (inactive) | > 47.1 µM (inactive) | –
4 | COc1cccc(/C(O)=C/c2nc3ccc(C(=O)NCCc4ccc(Cl)cc4)cc3nc2O)c1 | – | – | 5.02 µM (active) | – | EC50 [5]: 4.16 µM (active); EC50 [6]: 4.26 µM (active)
5 | C=CCn1c(C)cc(C(=O)CSc2nnc(Cc3ccccc3)o2)c1C | – | – | > 53 µM (inactive) | > 47.1 µM (inactive) | –
6 | Cc1ccc(OCn2c(=O)sc3ccccc32)cc1 | – | – | > 53 µM (inactive) | > 47.1 µM (inactive) | EC50 (H4): 14 µM (active); EC50 [7]: 42 µM (active); EC50 [8]: 35.3 µM (active)
7 | CCOC(=O)c1cnc2c([N+](=O)[O-])cnn2c1C | > 112 µM (not active) | > 112 µM (not active) | – | – | –
8 | COc1ccc(CNc2oc(COc3ccccc3)nc2C#N)cc1 | – | – | > 53 µM (inactive) | > 47.1 µM (inactive) | –
9 | CCCNC(=O)COC(=O)/C=C/c1ccco1 | > 112 µM (not active) | > 112 µM (not active) | – | – | –
10 | Cc1ccc(S(=O)(=O)n2nnc3ccccc32)c(C)c1C | – | – | > 53 µM (inactive) | > 47.1 µM (inactive) | –
11 | COc1cccc(C(=O)Nc2ccc(Cl)c(C(F)(F)F)c2)c1 | – | – | – | – | EC50 [5]: 60.1 µM (active); EC50 [6]: 43.3 µM (active)
12 | O=C(NCc1ccc2c(c1)OCO2)C1CCN(S(=O)(=O)c2ccc(F)cc2)CC1 | > 112 µM (not active) | > 112 µM (not active) | – | – | –
13 | Cc1ccc(CNC(=O)CCS(=O)(=O)c2ccc(Br)s2)o1 | > 112 µM (not active) | > 112 µM (not active) | – | – | –
14 | Cc1ccc2oc(-c3cccc(NC(=O)C4CCCO4)c3)nc2c1 (centres undefined) | > 112 µM (not active) | 26.6 µM (active) | – | – | –
15 | O=C(Nc1ccc(Cl)c(Cl)c1)Nc1ccccc1C(=O)O | 8.59 µM (active) | 0.12 µM (active) | – | – | AC50 [9]: 0.182 µM (active)
16 | Cn1nnnc1SCC(=O)NC1CCCc2ccccc21 (centres undefined) | > 112 µM (not active) | > 112 µM (not active) | – | – | –
17 | CC(C)Nc1nc(NC(C)(C)C)nc(Oc2ccc(=O)n(-c3ccccc3)n2)n1 | > 112 µM (not active) | > 112 µM (not active) | – | – | AC50 (Cytochrome P450 2C19): inconclusive; AC50 (Cytochrome P450 3A4): 12.6 µM (inconclusive)
18 | CCOc1ccc(NC(=O)CCCN2C(=O)C(c3ccccc3)Oc3cccnc32)cc1 (centres undefined) | – | – | > 53 µM (inactive) | > 47.1 µM (inactive) | –
19 | CCCCNCc1cc(Br)c(OCc2cccs2)c(OC)c1 | – | – | – | – | EC50 [5]: 16.6 µM (active); EC50 [6]: 17 µM (active)
20 | Cc1ccc(-c2csc3nnc(SCC(=O)N4CCN(Cc5ccccc5)CC4)n23)cc1 | – | – | > 53 µM (inactive) | > 47.1 µM (inactive) | –

Row | SMILES | EC50 [1] | EC50 [2] | EC50 [3] | IC50 [4] | further results
21 | COc1ccc(/C=C2\SC(=S)N(CC(=O)NCCO)C2=O)cc1 | – | – | > 53 µM (inactive) | > 47.1 µM (inactive) | –
22 | O=C(CN1C(=O)NC2(CCCC2)C1=O)c1ccc(Cl)s1 | – | – | > 53 µM (inactive) | > 47.1 µM (inactive) | –
23 | O=C(NNC1=Nc2cccc3cccc1c23)c1ccccc1Br | – | – | – | – | EC50 [5]: 20.8 µM (active); EC50 [6]: 21.9 µM (active)
24 | N#Cc1ccccc1Sc1ccccc1N | – | – | > 53 µM (inactive) | > 47.1 µM (inactive) | AC50 (Cytochrome P450 1A2): 22.4 µM (inconclusive)
25 | CC1CCC(NC(=O)CCN2C(=O)C3CC=CCC3C2=O)CC1 (centres undefined) | – | – | > 53 µM (inactive) | > 47.1 µM (inactive) | –
26 | CCN1C(=O)[C@H]2[C@@H](c3ccc(C(F)(F)F)cc3)N[C@]3(CCCN(Cc4ccccc4)C3=O)[C@H]2C1=O | – | – | – | – | AC50 [10]: 0.682 µM (active)
27 | O=c1cc(Cc2ccc([N+](=O)[O-])cc2)[nH]c(=O)[nH]1 | – | – | > 53 µM (inactive) | > 47.1 µM (inactive) | –
28 | Clc1nccnc1N/N=C/c1ccc(Br)cc1 | 4.81 µM (active) | 2.82 µM (active) | – | – | –
29 | Cc1ccc(S(=O)(=O)N(C)C[C@@H]2Oc3ccc(NC(=O)Nc4ccc5c(c4)OCO5)cc3C(=O)N([C@H](C)CO)C[C@@H]2C)cc1 | – | – | – | – | AC50 [10]: 5.55 µM (active); AC50 [11]: 2.48 µM (active)
30 | COc1ccc(S(=O)(=O)N(C)C[C@@H]2Oc3ccc(N(C)C)cc3C(=O)N([C@H](C)CO)C[C@@H]2C)cc1 | – | – | – | – | AC50 [10]: 26.4 µM (active); AC50 [11]: 12 µM (active)
31 | C[C@@H]1CN([C@H](C)CO)C(=O)c2cccc(NS(=O)(=O)c3ccccc3)c2O[C@@H]1CN(C)Cc1ccc(Cl)c(Cl)c1 | – | – | – | – | AC50 [10]: 1.67 µM (active); AC50 [11]: < 0.26 µM (active)
32 | C[C@H](CO)N1C[C@H](C)[C@H](CN(C)S(=O)(=O)c2ccccc2)Oc2ccc(NS(=O)(=O)c3ccccc3)cc2CC1=O | – | – | – | – | AC50 [10]: 13.6 µM (active); AC50 [11]: 8.48 µM (active)
33 | CCCN1[C@H](C(=O)N[C@@H](C)c2ccccc2)[C@@H](CO)[C@@H]2Cn3c(ccc(-c4cccc(F)c4)c3=O)[C@@H]21 | – | – | – | – | AC50 [11]: 41.5 µM (active)
34 | COC(=O)c1nn(-c2ccccc2)c(Sc2ccc(OC)cc2)c1/C=N/O | 28.5 µM (active) | > 112 µM (not active) | – | – | –
35 | COc1ccccc1C#Cc1ccc2c(c1)[C@H]1[C@H](CCN1C(=O)CN1CCOCC1)[C@@H](CO)N2 | – | – | – | – | AC50 [12]: 5.01 µM (active)
36 | COc1ccc(C#Cc2ccc([C@@H]3[C@@H](CO)N4CCCCN(C(=O)Nc5ccccc5F)C[C@@H]34)cc2)cc1 | – | – | – | – | AC50 [12]: 8.08 µM (active)
37 | COc1ccccc1CNC(=O)C[C@H]1C[C@H]2c3cc(NC(=O)Cc4ccncc4)ccc3O[C@H]2[C@H](CO)O1 | – | – | – | – | AC50 [12]: 5.4 µM (active)
38 | N#C[C@@H]1[C@H](c2ccccc2-c2cccc(F)c2)[C@@H](CO)N1C(=O)C1CCCC1 | – | – | – | – | AC50 [12]: 4.79 µM (active)
39 | O=C(c1ccccc1F)N1CC(=O)N2[C@H](C1)[C@H](c1ccc(-c3ccccc3)cc1)[C@@H]2CO | – | – | – | – | AC50 [12]: 5.6 µM (active)
